Laboratory results reported in PubChem BioAssay (NCI).
“And” between values parts separate entries of the source, which are not always exact repeats. Equal entries are not always repeated.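 Cells were grown in 96-well plates and exposed to each compound for 48 hours at five concentrations; endpoints were interpolated linearly between bracketing concentrations, or set to the highest concentration if not reached. At the GI50, growth is halved. At the TGI there is no net growth.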

Columns and labels:
Assay in all cases: NCI-60 cell line screen, 48 h
NCI-H522 lung = tested on: NCI-H522 lung
OVCAR-5 ovarian = tested on: OVCAR-5 ovarian
A549 NSCLC = tested on: A549 NSCLC
M14 melanoma = tested on: M14 melanoma
DU-145 prostate = tested on: DU-145 prostate
MCF7 breast = tested on: MCF7 breast
KM12 colon = tested on: KM12 colon
A498 renal = tested on: A498 renal
RXF 393 renal = tested on: RXF 393 renal
SN12C renal = tested on: SN12C renal

SMILES	TGI (NCI-H522 lung)	TGI (OVCAR-5 ovarian)	TGI (A549 NSCLC)	TGI (M14 melanoma)	TGI (DU-145 prostate) [µM]	TGI (MCF7 breast) [µM]	TGI (KM12 colon)	TGI (A498 renal)	TGI (RXF 393 renal)	TGI (SN12C renal)	GI50 (NCI-H522 lung) [µM]	GI50 (OVCAR-5 ovarian) [µM]	GI50 (A549 NSCLC) [µM]	GI50 (M14 melanoma) [µM]	GI50 (DU-145 prostate) [µM]	GI50 (MCF7 breast) [µM]	GI50 (KM12 colon) [µM]	GI50 (A498 renal) [µM]	GI50 (RXF 393 renal) [µM]	GI50 (SN12C renal) [µM]
Cc1ccc(CNc2ccc(Br)cc2)cc1	43.9 µM	> 100 µM	> 100 µM	> 100 µM	> 100	61	> 100 µM	> 100 µM	76.5 µM	> 100 µM	–	–	–	–	–	–	–	–	–	–
COc1ccc(-c2cc(-c3ccc(Nc4nc(Nc5ccccc5)nc(Nc5ccc(Cl)cc5)n4)cc3)nc(N)n2)cc1	27.1 µM	26.3 µM	> 50 µM	28.8 µM	26.9	21	45.1 µM	20 µM	30.7 µM	32.6 µM	9.02	9.72	20.5	9.33	12.1	5.34	4.72	9.29	12.1	11.8
CC1CC2C3CCC4=CC(=O)C=CC4(C)C3(F)C(O)CC2(C)C1(O)C(=O)COP(=O)(O)O (configuration not stated)	> 500 µM	> 500 µM	> 500 µM	> 500 µM	> 500	> 500	> 500 µM	> 500 µM	> 500 µM	> 500 µM	> 500	> 500	> 500	> 500	> 500	> 500	> 500	> 500	> 500	> 500
CCOC(=O)c1c(-c2ccccc2)[n+](=O)c2cc(Cl)c(Cl)cc2n1[O-]	> 100 µM	47.7 µM	34.4 µM	27.9 µM	22.9	20.9	2.77 µM	33.9 µM	22.9 µM	22.2 µM	14.2	22	15.5	13.3	9.4	2.03	1.31	18.4	6.59	3.03
COC(=O)NC1C(C)OC(OC2C/C=C(/C)C3C=CC4C(OC5CC(OC6CCC(OC7CC(O)C(OC8CCC(O)C(C)O8)C(C)O7)C(C)O6)C(OC(C)=O)C(C)O5)C(C)CC(C)C4C3(C)/C(O)=C3/C(=O)OC4(CC(C=O)=CC(O)C4/C=C\2C)C3=O)CC1(C)[N+](=O)[O-] (configuration not stated)	2.8 µM and 0.645 µM	4.71 µM and 2.55 µM	8.73 µM and 2.5 µM	2.42 µM and 1.54 µM	5.07	4.01	2.04 µM and 0.337 µM	1.65 µM and 0.508 µM	1.27 µM and 0.334 µM	3.32 µM and 0.891 µM	0.222	1.14	0.48	0.382	–	–	0.0714	0.199	0.158	0.27
c1ccc(-c2oc(-c3ccccc3)c(CN3CCCCC3)c2CN2CCCCC2)cc1	11.7 µM	8.85 µM	24.8 µM	4.25 µM	21.6	6.15	10.4 µM	11.8 µM	5.74 µM	12.4 µM	2.47	1.82	5.55	1.83	7.72	1.66	2.9	2.41	1.85	2.84
Cn1cc(/C=C\[N+](=O)[O-])c2ccccc21	> 100 µM	> 100 µM	> 100 µM	> 100 µM	81.7	80.6	> 100 µM	7.39 µM	32.3 µM	> 100 µM	> 100	> 100	46.4	37.1	29.7	21	34.9	3.36	17.6	> 100
Oc1ccc(Cl)cc1C(c1cc(Cl)ccc1O)C(Cl)(Cl)Cl	5.44 µM	3.68 µM	8.25 µM	3.62 µM	3.42	6.65	3.34 µM	3.53 µM	4.16 µM	3.28 µM	1.87	1.66	2.68	1.78	1.77	2.42	1.73	1.67	1.95	1.67
Cc1cc(=O)oc2ccc(OC/C=C3\CCC(=O)O3)cc12	3.57 µM	31.2 µM	33 µM	5.37 µM	17.7	13.3	25.5 µM	50.6 µM	21.3 µM	31.4 µM	1.65	14.8	17	1.75	3.62	2.36	7.76	12.3	5.85	13.5
COc1ccc2nc3cc(Cl)ccc3c(NCCCNCCO)c2c1	1.63 µM	3.28 µM	2.06 µM	2.16 µM	2.77	2.06	2.81 µM	1.5 µM	2.22 µM	2.48 µM	0.379	0.531	0.378	0.562	0.48	0.355	0.498	0.197	0.58	0.371
CSC1=NC(=Nc2c(C)cccc2C)C2(CCC(C(C)(C)C)CC2)N1c1ccc(Cl)cc1 (configuration not stated)	–	> 100 µM	–	> 100 µM	> 100	> 100	> 100 µM	> 100 µM	> 100 µM	> 100 µM	–	> 100	–	68.2	> 100	26.5	20.9	> 100	52.4	40.8
CCCCN(CCCC)C(=O)[C@H](CC)[C@@H]1CC[C@@H](C)[C@@H]([C@H](C)[C@@H](O)[C@@H](C)C(=O)[C@H](CC)C2O[C@]3(C=C[C@@H](O)[C@]4(CC[C@@](C)([C@H]5CC[C@](O)(CC)[C@H](C)O5)O4)O3)[C@H](C)C[C@@H]2C)O1 (some centres not stated)	5.44 µM	4.78 µM	34.4 µM	–	6.42	7.77	3.91 µM	6.24 µM	3.37 µM	7.34 µM	2.08	1.9	3.12	–	2.61	2.4	1.83	1.99	1.59	2.13
